Patent US8741578B2, “Methods of detecting chronic lymphocytic leukemia with Hsp90 and ZAP-70” (The Regents of the University of California, priority 2004, dated 2014)
Values joined by “and” are separate entries in the source; they are usually repeats but may differ in a detail not shown here. Identical values can stand only once. “Also recorded” adds a separate entry of the source. Like-named read-outs stand apart in the source and are kept apart here.

Columns and labels:
[1] = test system: Purified native Hsp90 protein; conditions: read-out: IC50, inhibition of binding of Hsp90 to biotin-GM
Description: Valencia, Calif.) for 1 h at 4° C. Tubes were placed on a magnetic rack, and the unbound supernatant removed. The magnetic beads were washed in lysis buffer and heated for 5 min at 95° C. in SDS-PAGE sample buffer. Samples were analyzed on SDS protein gels, and immunoblots performed using the indicated antibodies. The band intensities in the immunoblots were assessed using the Bio-rad Fluor-S MultiImager, and the percentage inhibition of binding of Hsp90 to the biotin-GM calculated.

[2] = test system: B-cell receptor (BCR) signaling in ZAP-70+ CLL cells; test: B-cell receptor signaling after anti-μ stimulation in ZAP-70+ CLL cells (IP/immunoblot)
Description: Pxotein lysates were immunoprecipitated (IP) with specific anti-p72^Syk antibody and assessed by western blot (WB) for tyrosine phosphorylation using 4G10 antibody and p72^Syk expression. Protein lysates from the same samples were evaluated by western blot using the indicated antibodies. Activation of NF-κB was assessed by degradation of IκB-α.
Lysates were prepared as described above. Protein-A Sepharose beads (Zymed Laboratories Inc South San Francisco, Calif.) were pre-blocked with 5% BSA. The cell lysates were pre-cleared by incubating with 50 μl of protein-A Sepharose beads (50% slurry). To 100 μl of the pre-cleared cell lysate, either no antibody or antibodies to Hsp90, ZAP-70, p23, Hop, or p72^Syk were added, and incubated by rotating for 1 h at 4° C. Fifty μl of pre-cleared beads (50% slurry) were then added and incubated by rotating for 1 h at 4° C. Bound beads were centrifuged at 3,000×g and unbound samples were collected.
(§1) Protein lysates for immunoblot studies were prepared using RIPA buffer with protease inhibitors (10 μg/ml aprotinin, 10 μg/ml leupeptin, 10 μg/ml pepstatin and 1 mM phenylmethylsulfonyl fluoride), and in some cases phosphatase inhibitors (1 mM Na-Vanadate and 10 mM β-Glycerophosphate). Membranes were probed with antibodies as indicated. Detection was accomplished by chemiluminescence using horseradish peroxidase (HRP) conjugated antibodies followed by development with ECL Plus (Amersham-Biosciences Piscataway, N.J.) and autoradiography with Super RX film (Fuji, Tokyo, Japan)

[3] = test system: CLL cells; test: Apoptosis of primary CLL cells by flow cytometry (DiOC6/PI); conditions: 100 nM; for Apoptosis after treatment: ZAP-70+ CLL cells
Description: IgVH gene mutation was assessed by gene sequencing. Sequences with less than 98 percent homology to the corresponding germ-line IgVH sequence were considered mutated. […] Peripheral blood mononuclear cells (PBMC) from CLL patients were obtained from the CLL Research Consortium (CRC) tissue bank. […] ZAP-70 expression and IgVH gene mutational status were assessed. Cells were incubated in RPMI media at 37° C. with 5% CO2. […] Cell samples were incubated also in media with DMSO (1%) as a control.
(§2) Fluorochrome-conjugated monoclonal antibodies were used for flow cytometry. The samples were processed using a FACScalibur (Becton-Dickinson B D, Franklin Lakes, N.J.) and the data were analyzed using Flo-Jo 3.6 software (Stanford University-Tree Star Inc. San Francisco, Calif.). Apoptotic and viable cells were discriminated via flow cytometry with 3,3′ dihexyloxacarbocyanine iodide (DiOC6) (Molecular Probes, Eugene, Oreg.) and propidium iodide (Sigma, St. Louis, Mo.). Using this method viable cells exclude PI and stain brightly positive for DiOC6.

[4] = test system: Ad-ZAP-70 transduced CLL cells; test: Apoptosis of ZAP-70-negative CLL cells transduced with Ad-ZAP-70; format: cell-based, human; conditions: 100 nM, 48 hours after 48 hours of transduction; P≦0.001
Description: . (A) ZAP-70-negative leukemia cells were transduced with adenovirus expressing ZAP-70 (Ad-ZAP-70—solid histogram) and β-galactosidase (Ad-LacZ—bold line histogram). Cells were kept in media as a control (dashed line histogram). After 48 hours in culture Ad-ZAP-70 but not Ad-LacZ transduced cells expressed the ZAP-70 transgene (46% expression with a mean fluorescence intensity ratio (MFIR) of 2.8). (B) ZAP-70-negative CLL cells were transduced with adenovirus and after 48 hours they were harvested and lysed. Immunoprecipitations (IP) and immunoblots were performed with the antibodies indicated. […]
cDNA of ZAP-70 extracted from normal T cells was cloned into the CMV promoter and polyadenylation signal of pcDNA3. This construct was then subcloned into the shuttle vector MCS(SK)pXCX2. This shuttle vector was cotransfected with pJM17 into 293 cells using the calcium phosphate method.
Isolated adenovirus plaques were harvested and used to infect 293 cells. High titer adenovirus preparations were obtained. CLL cells were infected with either Ad-ZAP-70 or a control adenovirus vector (Ad-LacZ) for 48 hours at 37° C. using a multiplicity of infection (MOI) of 1000.
. ZAP-70-negative CLL cells were transduced with an adenovirus vector encoding ZAP-70 (Ad-ZAP-70) or β-galactosidase (Ad-LacZ) as a control. […]

[5] = test system: ZAP-70 in CLL cells; test: ZAP-70 expression in CLL cells after treatment (intracellular staining, immunoblot); format: cell-based, human; conditions: for IC50: read-out: IC50, dose-dependent reduction of leukemia-cell ZAP-70 expression
Description: Cells incubated in media with DMSO 1% final concentration were used as a control (⋄). ZAP-70 expression was evaluated by intracellular staining. […] In addition, immunoblots were probed with anti-Hsp70 and anti-poly ADP-ribose polymerase (PARP-1) monoclonal antibodies. β-actin was used as a protein loading control. […] The cells were stained with specific antibodies and analyze by flow cytometry.
as §1, §2

[6] = test system: Hsp90 from ZAP-70-negative CLL cells, normal B and T cells; conditions: read-out: IC50, inhibition of binding of Hsp90 to biotin-GM; lysates from ZAP-70-negative CLL cells or normal T or B cells
Description: The binding affinity of the ligand is measured by its ability to inhibit the binding of geldanamycin, an inhibitor of Hsp90. The cell containing the Hsp90 is lysed in lysis buffer. The lysates are incubated with or without test agent and then incubated with biotin-geldanamycin linked to BioMag™ sreptavidin magnetic beads (Qiagen). The bound samples and the unbound supernatant can be separately collected and analyzed on SDS protein gels, and blotted using and Hsp90 antibody. The bands in the Western Blots may be quantitated using the Biorad Fluor-S MultiImager, and the percent inhibition of binding of Hsp90 to the biotin-geldanamycin calculated.
Tubes were placed on a magnetic rack, and the unbound supernatant removed. The magnetic beads were washed in lysis buffer and heated for 5 min at 95° C. in SDS-PAGE sample buffer. Samples were analyzed on SDS protein gels, and immunoblots performed using the indicated antibodies. The band intensities in the immunoblots were assessed using the Bio-rad Fluor-S MultiImager, and the percentage inhibition of binding of Hsp90 to the biotin-GM calculated.

[7] = test system: ZAP-70 in T cells; test: ZAP-70 expression in T cells after treatment (flow cytometry); format: cell-based, human
Description: Cells incubated in media with DMSO 1% final concentration were used as a control (⋄). ZAP-70 expression was evaluated by intracellular staining. […] The cells were stained with specific antibodies and analyze by flow cytometry.
Fluorochrome-conjugated monoclonal antibodies were used for flow cytometry. The samples were processed using a FACScalibur (Becton-Dickinson B D, Franklin Lakes, N.J.) and the data were analyzed using Flo-Jo 3.6 software (Stanford University-Tree Star Inc. San Francisco, Calif.).

[8] = test system: CLL cells in whole blood; test: Whole blood apoptosis test of CLL subpopulation (DiOC6, anti-CD5/anti-CD19); conditions: different concentrations, room temperature
Description: For example, whole blood cells from patients with CLL or suspected of having CLL can be obtained. […] Red cells are lysed using ammonium-chloride buffer. The cells are stained with specific antibodies and DiOC6. Samples are analyzed by flow cytometry to show a density plot of cells labeled with anti-CD5 and anti-CD19.

With C=CCNC1=C2CC(C)CC(OC)C(O)C(C)/C=C(\C)C(OC(N)=O)C(OC)/C=C\C=C(/C)C(=O)NC(=CC1=O)C2=O (centres unmarked) [17-AAG, 17-allylamino-17-demethoxygeldanamycin] the IC50 [1] was 600 nM, the “Effect on level/degradation of p72Syk, IKK-α” value ([2]; ZAP-70+ CLL cells) was “did not alter the level of p72^Syk; also recorded: did not induce degradation of p72^Syk or IKK-α” and the “Response to BCR ligation with anti-μ (p72Syk phosphorylation, IκB-α degradation)” value ([2]; prior treatment for ≧24 hours) was “inert to stimulation with anti-μ antibody”. The “17-AAG-induced apoptosis, %” value ([3]; 48 hours, primary CLL cells, each table row is one patient sample (patient no. 1-25)) was 4.7% and 11.5% and 12.3% and 14.9% and 3.7% and 0.5% and 12.6% and 3.4% and 22.4% and 55.4% and 33.9% and 37.9% and 35.4% and 41.3% and 57.9% and 57.7% and 67.4% and 69.4% and 66.8% and 78.8% and 79.9% and 74.4% and 3.9% and 4.5% and 1.2%, the Apoptosis after treatment ([3]; 24 hours) was 30% and the Apoptosis after treatment ([3]; 72 hours) was 50%. The “Apoptosis compared with non-transduced or Ad-LacZ transduced cells” value [4] was “significantly higher level of apoptosis”, the “Post-treatment ZAP-70 mean fluorescence intensity (MFI)” value ([5]; CLL cells, 300 nM, 48 hours, prior to treatment 110) was 25 and the IC50 ([5]; Homo sapiens, CLL cell, 24 h) was 60 nM. For the same compound, the IC50 [6] was no less than 300 nM, the “Effect on ZAP-70 expression in T cells” value ([7]; T cells from CLL patients or healthy donors, even at ≧300 nM) was “did not affect ZAP-70 expression levels in T cells” and the “Post-treatment ZAP-70 mean fluorescence intensity (MFI)” value ([7]; T cells, 300 nM, 48 hours, prior to treatment 210) was 190. The “Induction of apoptosis in whole blood CLL subpopulation” value [8] was “exclusively in the ZAP-70 positive cells”.

CO[C@H]1/C=C\C=C(/C)C(=O)NC2=CC(=O)C(NCCN(C)C)=C(C[C@@H](C)C[C@H](OC)[C@H](O)[C@@H](C)/C=C(\C)[C@@H]1OC(N)=O)C2=O [17-DMAG, 17-(2-dimethylaminoethy)amino-17-demethoxygeldanamycin] was tested, and the IC50 ([5]; ZAP-70+ CLL cells, after 24 hours) was 60 nM.
